Key:
Type in all cases: ADME, organism-based
Settings in all cases: in vivo
[1] = Tmax in Wistar rat at 200 mg/kg, […] by LC-MS/MS analysis
[2] = Oral bioavailability in Wistar rat at 20 mg/kg by LC-MS/MS analysis
[3] = Oral bioavailability in human
[4] = Tmax in Wistar rat at 20 mg/kg, […] by LC-MS/MS analysis

- Tmax [1]: 39.6 min
- bioavailability [2]: 61.2%
- bioavailability [3]: 2.67%
- Tmax [4]: 62.4 min
Compound: C=C1CC[C@@H]2[C@](C)(CO)[C@H](O)CC[C@@]2(C)[C@@H]1C/C=C1/C(=O)OC[C@H]1O [ANDROGRAPHOLIDE]

Source: ChEMBL document CHEMBL6078639, “Andrographolide: A promising therapeutic agent against organ fibrosis” (Eur J Med Chem, 2024)
